The first assay has as its target T1, ER (Homo sapiens, UniProt P03372).
T1 construct: host or cells: T47D and MCF7 human breast cancer cells
T1 sequence (P03372 1-595): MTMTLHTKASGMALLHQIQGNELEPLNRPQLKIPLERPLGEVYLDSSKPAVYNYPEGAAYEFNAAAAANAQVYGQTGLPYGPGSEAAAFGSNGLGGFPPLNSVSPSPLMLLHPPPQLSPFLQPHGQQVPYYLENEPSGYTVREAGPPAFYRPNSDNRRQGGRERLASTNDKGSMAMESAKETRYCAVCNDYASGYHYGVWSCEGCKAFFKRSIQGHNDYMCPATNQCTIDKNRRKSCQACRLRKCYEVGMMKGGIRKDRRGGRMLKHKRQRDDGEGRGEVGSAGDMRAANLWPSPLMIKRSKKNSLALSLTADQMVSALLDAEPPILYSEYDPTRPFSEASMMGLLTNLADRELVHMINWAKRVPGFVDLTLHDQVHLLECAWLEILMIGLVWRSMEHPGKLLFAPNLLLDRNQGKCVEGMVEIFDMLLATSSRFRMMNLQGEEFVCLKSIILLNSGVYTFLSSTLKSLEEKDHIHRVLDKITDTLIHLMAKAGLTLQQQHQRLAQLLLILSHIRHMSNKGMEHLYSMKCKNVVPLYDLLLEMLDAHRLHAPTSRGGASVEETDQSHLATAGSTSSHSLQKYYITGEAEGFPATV
Put plainly: ER degradation activity, in-cell western blot analysis in T47D cells. In kind it is cell-based. As to conditions: 16 hours, Table A does not say which cell line (T47D or MCF7), read-out: Potency (DC50). The procedure, abridged: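 ER protein remaining after 16 h compound exposure is quantified in T47D cells by in-cell western, with a no-primary-antibody background control. Values are percentages of DMSO-treated signal.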
With `C[C@@H]1Cc2c([nH]c3ccccc23)[C@@H](c2c(F)cc(N3CC(C(=O)N4CCC(CN5Cc6cc7c(cc6C5)C(=O)N(C5CCC(=O)NC5=O)C7=O)CC4)C3)cc2F)N1CC(F)F` (stereo partly drawn) [E 237, 6-((1-(1-(4-((1R,3R)-2-(2,2-difluoroethyl)-3-methyl-2,3,4,9-tetrahydro-1H-pyrido[3,4-b]indol-1-yl)-3,5-difluorophenyl)azetidine-3-carbonyl)piperidin-4-yl)methyl)-2-(2,6-dioxopiperidin-3-yl)-6,7-dihydropyrrolo[3,4-f]isoindole-1,3(2H,5H)-dione], the DC50 (commonly the midpoint of the concentration-degradation curve) is above 100 nM.
Still for that read-out and setting: then `O=C1CCC(N2C(=O)c3cc4c(cc3C2=O)CN(CC(=O)N2CCC3(CC2)CCN(c2c(F)cc([C@@H]5c6ccc(O)cc6CC[C@@H]5c5ccccc5)cc2F)CC3)C4)C(=O)N1` (mixture of isomers) [E 175, Rac-6-(2-(9-(2,6-difluoro-4-((1R,2S)-6-hydroxy-2-phenyl-1,2,3,4-tetrahydronaphthalen-1-yl)phenyl)-3,9-diazaspiro[5.5]undecan-3-yl)-2-oxoethyl)-2-(2,6-dioxopiperidin-3-yl)-6,7-dihydropyrrolo[3,4-f]isoindole-1,3(2H,5H)-dione], with above 100 nM; and `C[C@@H]1Cc2c([nH]c3ccccc23)[C@@H](c2c(F)cc(N3CC4(CCCN(C(=O)CN5Cc6cc7c(cc6C5)C(=O)N(C5CCC(=O)NC5=O)C7)C4)C3)cc2F)N1CC(F)F` (stereo partly shown) [E 69], with above 100 nM.
Same read-out and setting: for `O=C1CCC(N2C(=O)c3cc4c(cc3C2=O)CN(CC2CCN(C(=O)C3(F)CN(c5ccc([C@@H]6c7ccc(O)cc7CC[C@@H]6c6ccccc6)cc5)C3)CC2)C4)C(=O)N1` (stereo partly drawn) [E 203, 2-(2,6-dioxopiperidin-3-yl)-6-((1-(3-fluoro-1-(4-((1R,2S)-6-hydroxy-2-phenyl-1,2,3,4-tetrahydronaphthalen-1-yl)phenyl)azetidine-3-carbonyl)piperidin-4-yl)methyl)-6,7-dihydropyrrolo[3,4-f]isoindole-1,3(2H,5H)-dione] the value was above 100 nM; for `O=C1CCC(N2C(=O)c3cc4c(cc3C2=O)CN(CC(=O)N2CC3(CCN(c5ccc([C@@H]6c7ccc(O)cc7CC[C@@H]6c6ccccc6)c(F)c5)CC3)C2)C4)C(=O)N1` (mixture of isomers) [E 174, Rac-2-(2,6-dioxopiperidin-3-yl)-6-(2-(7-(3-fluoro-4-((1S,2S)-6-hydroxy-2-phenyl-1,2,3,4-tetrahydronaphthalen-1-yl)phenyl)-2,7-diazaspiro[3.5]nonan-2-yl)-2-oxoethyl)-6,7-dihydropyrrolo[3,4-f]isoindole-1,3(2H,5H)-dione], 10 to 100 nM; for `O=C1CCC(N2C(=O)c3cc4c(cc3C2=O)CN(CCC(=O)NC2CCN(c3ccc([C@@H]5c6ccc(O)cc6CC[C@@H]5c5ccccc5)cc3)CC2)C4)C(=O)N1` (stereo partly drawn) [E332, 3-(6-(2,6-dioxopiperidin-3-yl)-5,7-dioxo-3,5,6,7-tetrahydropyrrolo[3,4-f]isoindol-2(1H)-yl)-N-(1-(4-((1R,2S)-6-hydroxy-2-phenyl-1,2,3,4-tetrahydronaphthalen-1-yl)phenyl)piperidin-4-yl)propanamide], above 100 nM.
Same read-out and setting: for `O=C1CCC(N2C(=O)c3cc4c(cc3C2=O)CN(C2CN(CC3CCN(c5ccc([C@@H]6c7ccc(O)cc7CC[C@@H]6c6ccccc6)cc5)CC3)C2)C4)C(=O)N1` (stereo partly drawn) [E 272, 2-(2,6-dioxopiperidin-3-yl)-6-(1-((1-(4-((1R,2S)-6-hydroxy-2-phenyl-1,2,3,4-tetrahydronaphthalen-1-yl)phenyl)piperidin-4-yl)methyl)azetidin-3-yl)-6,7-dihydropyrrolo[3,4-f]isoindole-1,3(2H,5H)-dione] the value was above 100 nM.
Turning to `O=C1CCC(N2C(=O)c3cc4c(cc3C2=O)CN(CC(=O)N2CCC3(CC2)CCN(c2ccc([C@@H]5c6ccc(O)cc6CC[C@@H]5C5CCCCC5)cc2)CC3)C4)C(=O)N1` (mixture of isomers) [E 177, Rac-6-(2-(9-(4-((1R,2R)-2-cyclohexyl-6-hydroxy-1,2,3,4-tetrahydronaphthalen-1-yl)phenyl)-3,9-diazaspiro[5.5]undecan-3-yl)-2-oxoethyl)-2-(2,6-dioxopiperidin-3-yl)-6,7-dihydropyrrolo[3,4-f]isoindole-1,3(2H,5H)-dione], the DC50 is 10 to 100 nM.
The same measure, in the same setting: then `O=C1CCC(N2Cc3cc4c(cc3C2=O)CN(C2CCN(CC3CCN(c5ccc([C@@H]6c7ccc(O)cc7CC[C@@H]6c6ccccc6)cc5)CC3)CC2)C4)C(=O)N1` (mixture of isomers) [E 3, Rac-3-(6-(1-((1-(4-((1R,2S)-6-hydroxy-2-phenyl-1,2,3,4-tetrahydronaphthalen-1-yl)phenyl)piperidin-4-yl)methyl)piperidin-4-yl)-1-oxo-3,5,6,7-tetrahydropyrrolo[3,4-f]isoindol-2(1H)-yl)piperidine-2,6-dione], with below 10 nM; and `C[C@@H]1Cc2cc(O)ccc2[C@@H](c2ccc(N3CCC(C(=O)N4CC(CN5Cc6cc7c(cc6C5)C(=O)N(C5CCC(=O)NC5=O)C7=O)C4)CC3)cc2F)N1CC(F)F` (stereo partly drawn) [E 349, 6-((1-(1-(4-((1S,3R)-2-(2,2-difluoroethyl)-6-hydroxy-3-methyl-1,2,3,4-tetrahydroisoquinolin-1-yl)-3-fluorophenyl)piperidine-4-carbonyl)azetidin-3-yl)methyl)-2-(2,6-dioxopiperidin-3-yl)-6,7-dihydropyrrolo[3,4-f]isoindole-1,3(2H,5H)-dione], with above 100 nM.
Same read-out and setting: for `C[C@@H]1Cc2c([nH]c3ccccc23)[C@@H](c2cnc(N3CCC4(CC3)CN(C(=O)CN3Cc5cc6c(cc5C3)C(=O)N(C3CCC(=O)NC3=O)C6=O)C4)nc2)N1CC(F)(F)F` (stereo partly drawn) [E 255, 2-(2,6-dioxopiperidin-3-yl)-6-(2-(7-(5-((1R,3R)-3-methyl-2-(2,2,2-trifluoroethyl)-2,3,4,9-tetrahydro-1H-pyrido[3,4-b]indol-1-yl)pyrimidin-2-yl)-2,7-diazaspiro[3.5]nonan-2-yl)-2-oxoethyl)-6,7-dihydropyrrolo[3,4-f]isoindole-1,3(2H,5H)-dione] the value was below 10 nM; for `C[C@@H]1Cc2c([nH]c3ccccc23)[C@@H](c2c(F)cc(N3CCC4(CC3)CC(C(=O)N3CCC(N5Cc6cc7c(cc6C5)C(=O)N(C5CCC(=O)NC5=O)C7)CC3)C4)cc2F)N1CC(F)F` (stereo partly drawn) [E 101, 3-(6-(1-(7-(4-((1R,3R)-2-(2,2-difluoroethyl)-3-methyl-2,3,4,9-tetrahydro-1H-pyrido[3,4-b]indol-1-yl)-3,5-difluorophenyl)-7-azaspiro[3.5]nonane-2-carbonyl)piperidin-4-yl)-1-oxo-3,5,6,7-tetrahydropyrrolo[3,4-f]isoindol-2(1H)-yl)piperidine-2,6-dione], below 10 nM.

Still in this assay, the particulars now being: compounds 16 hours, Table A does not say whether T47D or MCF7, read-out: Potency (DC50).
For the molecule `O=C1CCC(N2C(=O)c3cc4c(cc3C2=O)CN(C2CCN(C(=O)[C@H]3C[C@@H](Oc5ccc([C@@H]6c7ccc(O)cc7CC[C@@H]6c6ccccc6)cc5)C3)CC2)C4)C(=O)N1` (mixture of isomers) [E 490, 2-(2,6-dioxopiperidin-3-yl)-6-(1-((1SR,3SR)-3-(4-((1R,2S)-6-hydroxy-2-phenyl-1,2,3,4-tetrahydronaphthalen-1-yl)phenoxy)cyclobutane-1-carbonyl)piperidin-4-yl)-6,7-dihydropyrrolo[3,4-f]isoindole-1,3(2H,5H)-dione], the DC50 was 10 to 100 nM.
The same measure, in the same setting: then `O=C1CCC(N2Cc3cc4c(cc3C2=O)CN(C2CCN(CC3CCN(c5ccc([C@@H]6c7ccc(O)cc7CC[C@@H]6c6ccccc6)cc5)CC3)CC2)C4=O)C(=O)N1` (stereo partly drawn) [E 506, 2-(2,6-dioxopiperidin-3-yl)-6-(1-((1-(4-((1R,2S)-6-hydroxy-2-phenyl-1,2,3,4-tetrahydronaphthalen-1-yl)phenyl)piperidin-4-yl)methyl)piperidin-4-yl)-2,3,6,7-tetrahydropyrrolo[3,4-f]isoindole-1,5-dione], with above 100 nM; and `O=C1CCC(N2Cc3cc4c(cc3C2=O)CN(C2CN(CC3CCN(c5ccc([C@@H]6c7ccc(O)cc7CC[C@@H]6c6ccccc6)cc5)CC3)C2)C4=O)C(=O)N1` (stereo partly drawn) [E 505, 2-(2,6-dioxopiperidin-3-yl)-6-(1-((1-(4-((1R,2S)-6-hydroxy-2-phenyl-1,2,3,4-tetrahydronaphthalen-1-yl)phenyl)piperidin-4-yl)methyl)azetidin-3-yl)-2,3,6,7-tetrahydropyrrolo[3,4-f]isoindole-1,5-dione], with above 100 nM.
Same read-out and setting: for `O=C1CCC(N2C(=O)c3cc4c(cc3C2=O)CN(C[C@H]2CC[C@H](C(=O)N3CC(Oc5ccc([C@@H]6c7ccc(O)cc7CC[C@@H]6c6ccccc6)cc5)C3)CC2)C4)C(=O)N1` (mixture of isomers) [E 498, 2-(2,6-dioxopiperidin-3-yl)-6-(((IRS,4SR)-4-(3-(4-((1R,2S)-6-hydroxy-2-phenyl-1,2,3,4-tetrahydronaphthalen-1-yl)phenoxy)azetidine-1-carbonyl)cyclohexyl)methyl)-6,7-dihydropyrrolo[3,4-f]isoindole-1,3(2H,5H)-dione] the value was 10 to 100 nM.

These data come from US20240190880A1 (THE REGENTS OF THE UNIVERSITY OF MICHIGAN, priority 2021, published 2024).
